Here are results for eleven molecules from PMC6385854, “Structural insights reveal a recognition feature for tailoring hydrocarbon stapled-peptides against the eukaryotic translation initiation factor 4E protein” (Chemical Science, 2019).

Like-named read-outs stand apart in the source and are kept apart here. Numbered stars: 1 amine (or outer) side, 2 acyl side, 3 side chain; on linkers, the order of the positions; unused ones are H or OH. Bridge positions count the residues as written; N and C are the ends. Square brackets hold non-standard residues; d marks the D form. Peptide text beside a SMILES is read from it. ξ: configuration not given here. ξαMeNle(6-ylidene) = CC(CCCC=[*:3])(N[*:1])C(=O)[*:2]; R5 = C=CCCC[C@@](C)(N)C(=O)O; S5 = C=CCCC[C@](C)(N)C(=O)O

This assay has as its target T1, Human recombinant eIF4E protein (Homo sapiens, UniProt P06730).
T1 construct: V28-V217; made in house; host or cells: Escherichia coli BL21 (DE3)
Briefly: Surface plasmon resonance binding of stapled-peptides to immobilized eIF4E. The settings on record: SPR; for kon: eIF4E (His tag or w/o tag) amine-coupled on CM5 chip, saturated with m7GTP, peptides 3 μM to 1.372 nM, 60 s injection, 120 s dissociation. The protocol:
Human recombinant eIF4E protein with His tag (eIF4E-His) and without tag (eIF4E w/o tag) were separately immobilized on a CM5 sensor chip through amine coupling using the same protocol. Each flow cell of a CM5 sensor chip was first activated by a 7 min injection (10 μl min^–1) of freshly prepared 1 : 1 50 mM NHS : 200 mM EDC. Diluted eIF4E in NaAc (pH 5.0), with m^7GTP present in ≥2 : 1 ratio to saturate eIF4E, was injected over the sensor chip surface at a flow rate of 10 μl min^–1. The remaining active coupling sites were blocked with a 7 min injection of 1 M ethanolamine at 10 μl min^–1. The immobilization level is ∼2500 RU for eIF4E w/o tag and ∼5000 RU for eIF4E-His separately. Running buffer for immobilization was HBS-EP+ (10 mM HEPES, 150 mM NaCl, 3 mM EDTA, 0.05% surfactant P20).
Before measurement, the system was primed with assay running buffer HBS-EP+ (10 mM HEPES, 150 mM NaCl, 3 mM EDTA, 0.05% surfactant P20), with 1 mM DTT and 3% DMSO. Peptides were prepared by 3-fold dilution from high concentration to low concentration (3 μM to 1.372 nM). Peptides at increasing concentrations were injected over the chip surface for 60 s. The exposure was followed by a dissociation phase of 120 s. The flow rate was 30 μl min^–1. Surface regeneration was done using 2 M NaCl 30 s at 30 μl min^–1. Each reaction cycle ended with 50% DMSO extra wash. The solvent correction curve was setup by adding varying amounts of 100% DMSO to 1.03× running buffer to generate a range of DMSO solutions (2.000%, 2.286%, 2.571%, 2.857%, 3.143%, 3.429%, 3.714% and 4.000% respectively). After removing reference (blank buffer) signal and adding solvent correction, kinetics and/or steady-state parameters were calculated with Biacore T200 evaluation software ver. 3.0.
For orientation: Surface plasmon resonance follows binding to a sensor surface in real time, without labels.

[1] abbreviates: Biacore T200, HBS-EP+ with 1 mM DTT, 3% DMSO, mean ± SEM from at-least two independent experiments, SEM, read-out: k on.
[2] abbreviates: Biacore T200, eIF4E on CM5 chip, m7GTP, HBS-EP+ with 1 mM DTT, 3% DMSO, mean ± SEM from at-least two independent experiments, SEM, read-out: K D, binding affinity (kinetic KD) measured as a ratio of koff/kon.
[3] abbreviates: Biacore T200, eIF4E on CM5 chip, m7GTP, HBS-EP+ with 1 mM DTT, 3% DMSO, mean ± SEM from at-least two independent experiments, SEM, read-out: k off.
Where [4] appears, read: mean ± SEM from at-least two independent experiments.
Where [5] appears, read: mean ± SEM from at-least two independent experiments, SEM.
Where [6] appears, read: Biacore T200, HBS-EP+ with 1 mM DTT, 3% DMSO, mean ± SEM from at-least two independent experiments, SEM.
[7] abbreviates: Biacore T200, eIF4E on CM5 chip, m7GTP, HBS-EP+ with 1 mM DTT, 3% DMSO, mean ± SEM from at-least two independent experiments, SEM.
The mark [8] stands for this setting: Biacore T200, eIF4E on CM5 chip, m7GTP, HBS-EP+ with 1 mM DTT, 3% DMSO, mean ± SEM from at-least two independent experiments, read-out: K D, binding affinity (kinetic KD) measured as a ratio of koff/kon.

T1 sequence (P06730 28-217): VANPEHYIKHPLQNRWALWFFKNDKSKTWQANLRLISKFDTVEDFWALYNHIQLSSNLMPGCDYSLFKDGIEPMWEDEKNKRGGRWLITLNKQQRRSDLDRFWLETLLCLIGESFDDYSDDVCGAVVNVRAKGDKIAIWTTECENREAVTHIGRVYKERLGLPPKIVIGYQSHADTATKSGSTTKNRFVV

`CC(=O)N[C@@H](CCCCN)C(=O)N[C@@H](CCCCN)C(=O)N[C@@H](CCCNC(=N)N)C(=O)N[C@@H](Cc1ccc(O)cc1)C(=O)N[C@@H](CO)C(=O)N[C@@H](CCCNC(=N)N)C(=O)N[C@]1(C)CCCC=CCCC[C@](C)(C(=O)N[C@@H](Cc2ccccc2)C(N)=O)NC(=O)[C@H](CC(C)C)NC(=O)[C@H](CC(C)C)NC(=O)[C@H](CCC(N)=O)NC1=O` [sTIP-05] (Ac-KKRYSR[R5]QLL[R5]F-NH2; staple 7-11): the kon under setting [1] came to 1.5e+07 M⁻¹ s⁻¹. Under setting [2], the Kd was determined as 6.6 ± 0.7 nM. Besides, the koff under setting [3] amounted to 0.094 ± 8e-05 s⁻¹. The “RT, Residence Time measured as 1/koff” value reads like this: under setting [4], 10 s; under setting [5], 10.8 ± 0.9 s.
In the case of `CC(=O)N[C@@H](CCCCN)C(=O)N[C@@H](CCCCN)C(=O)N[C@@H](CCCNC(=N)N)C(=O)N[C@@H](Cc1ccc(O)cc1)C(=O)N[C@@H](CO)C(=O)N[C@@H](CCCNC(=N)N)C(=O)N[C@@]1(C)CCCC=CCCC[C@@](C)(C(=O)N[C@@H](Cc2ccccc2)C(=O)N[C@@H](Cc2c[nH]c3ccccc23)C(N)=O)NC(=O)[C@H](CC(C)C)NC(=O)[C@H](CC(C)C)NC(=O)[C@H](CCC(N)=O)NC1=O` [sTIP-07] (Ac-KKRYSR[S5]QLL[S5]FW-NH2; staple 7-11), the kon under setting [1] came out at 650000 ± 3e+09 M⁻¹ s⁻¹. For the same molecule, the Kd under setting [2] came out at 42.5 ± 0.5 nM. Besides, under setting [3], the koff came out at 0.028 ± 1e-05 s⁻¹. The “RT, Residence Time measured as 1/koff” value under setting [5] worked out at 36.3 ± 1.0 s.
With `CC(=O)N[C@@H](CCCCN)C(=O)N[C@@H](CCCCN)C(=O)N[C@@H](CCCNC(=N)N)C(=O)N[C@@H](Cc1ccc(O)cc1)C(=O)N[C@@H](CO)C(=O)N[C@@H](CCCNC(=N)N)C(=O)N[C@@]1(C)CCCC=CCCC[C@@](C)(C(=O)N[C@@H](Cc2ccccc2)C(=O)N[C@@H](CCCNC(=N)N)C(=O)N[C@@H](CCCNC(=N)N)C(=O)N[C@@H](CCCNC(=N)N)C(N)=O)NC(=O)[C@H](CC(C)C)NC(=O)[C@H](CC(C)C)NC(=O)[C@H](CCC(N)=O)NC1=O` [sTIP-09] (Ac-KKRYSR[S5]QLL[S5]FRRR-NH2; staple 7-11), under setting [1], the kon is 2.2e+06 ± 3e+11 M⁻¹ s⁻¹. The Kd under setting [2] worked out at 7.8 ± 1.9 nM. Moreover, the koff under setting [3] came out at 0.016 ± 3e-05 s⁻¹. The “RT, Residence Time measured as 1/koff” value runs as follows: under setting [4], 68 s; under setting [5], 68.8 ± 13.8 s.
On the same counts, the results for `CC(=O)N[C@@H](CCCCN)C(=O)N[C@@H](CCCCN)C(=O)N[C@@H](CCCNC(=N)N)C(=O)N[C@@H](Cc1ccc(O)cc1)C(=O)N[C@@H](CO)C(=O)N[C@@H](CCCNC(=N)N)C(=O)N[C@@H](CCC(=O)O)C(=O)N[C@@H](CCC(N)=O)C(=O)N[C@@H](CC(C)C)C(=O)N[C@@H](CC(C)C)C(=O)N[C@@]1(C)CCCC=CCCC[C@@](C)(C(N)=O)NC(=O)[C@H](CCCNC(=N)N)NC(=O)[C@H](CCC(N)=O)NC(=O)[C@H](Cc2ccccc2)NC1=O` [sTIP-10] (Ac-KKRYSREQLL[S5]FQR[S5]-NH2; staple 11-15) are 6.6e+06 ± 1e+11 M⁻¹ s⁻¹, 4.3 ± 0.4 nM, 0.026 ± 5e-05 s⁻¹, 39 s and 39.7 ± 3.1 s.
With `CC(=O)N[C@@H](CCCNC(=N)N)C(=O)N[C@@H](Cc1ccc(O)cc1)C(=O)N[C@@H](CO)C(=O)N[C@@H](CCCNC(=N)N)C(=O)NC1(C)CCCC=CCCCC(C)(C(=O)N[C@@H](Cc2ccccc2)C(N)=O)NC(=O)[C@H](CC(C)C)NC(=O)[C@H](CC(C)C)NC(=O)[C@H](CCC(N)=O)NC1=O` (stereo partly drawn) [sTIP-12] (Ac-RYSR[ξαMeNle(6-ylidene)]QLL[ξαMeNle(6-ylidene)]F-NH2; staple 5-9), the kon under setting [1] was found to be 420000 ± 1.9e+10 M⁻¹ s⁻¹. Also, the Kd under setting [2] is 397 ± 131 nM. Moreover, the koff under setting [3] amounted to 0.14 ± 0.002 s⁻¹. In addition, under setting [5], the “RT, Residence Time measured as 1/koff” value is reported as 7.1 ± 1.0 s.
As to `CC(=O)N[C@@H](Cc1ccc(O)cc1)C(=O)N[C@@H](CO)C(=O)N[C@@H](CCCNC(=N)N)C(=O)NC1(C)CCCC=CCCCC(C)(C(=O)N[C@@H](Cc2ccccc2)C(N)=O)NC(=O)[C@H](CC(C)C)NC(=O)[C@H](CC(C)C)NC(=O)[C@H](CCC(N)=O)NC1=O` (stereo partly drawn) [sTIP-13] (Ac-YSR[ξαMeNle(6-ylidene)]QLL[ξαMeNle(6-ylidene)]F-NH2; staple 4-8), the Kd is, setting by setting: (Binding affinity estimated (micromolar range), range over two independent experiments) 4000 to 36000 nM; (sensogram traces Fig. S2 E, F, experiment 1, read-out: Binding affinity estimated, first of two independent SPR experiments) 4000 nM; (sensogram traces Fig. S2 E, F, experiment 2, read-out: Binding affinity estimated, second of two independent SPR experiments) 36000 nM.
As to `CC(=O)N[C@@H](CCCNC(=N)N)C(=O)N[C@@H](Cc1ccc(O)cc1)C(=O)N[C@@H](CO)C(=O)N[C@@H](CCCNC(=N)N)C(=O)N[C@@]1(C)CCCC=CCCC[C@@](C)(C(=O)N[C@@H](CC(C)C)C(=O)N[C@@H](Cc2ccccc2)C(=O)N[C@@H](CCCNC(=N)N)C(N)=O)NC(=O)[C@H](CC(C)C)NC(=O)[C@H](CC(C)C)NC(=O)[C@H](CCC(N)=O)NC1=O` [sTIP-14] (Ac-RYSR[S5]QLL[S5]LFR-NH2; staple 5-9), the kon under setting [1] turned out to be 340000 ± 1.6e+10 M⁻¹ s⁻¹. In addition, the Kd under setting [2] amounted to 195 ± 49.7 nM. Besides, the koff under setting [3] worked out at 0.058 ± 0.00014 s⁻¹. Further, the “RT, Residence Time measured as 1/koff” value under setting [5] is given as 18.3 ± 4.5 s. Also, where the note is “relative to sTIP-12”, the “Improvement in KD over sTIP-12” value is given as 2 fold and the “Reduction in rate of dissociation (koff) over sTIP-12” value is 2 fold.
With “Ac-KRYSR*QLL*F-NH2 (sidechain bridge or staple) [sTIP-11, sTIP-05 with K1 deleted]”, under setting [6], the kon was 2.3 ± 0.9 × 10^7 M^–1 s^–1. Further, under setting [7], the “K D, binding affinity (kinetic KD) measured as a ratio of koff/kon” value (“K D, binding affinity … as a ratio of koff/kon” below) is on record as 21.9 ± 3.8 nM and the koff is given as 4.6 ± 1.2 × 10^–1 s^–1. Also, the “RT, Residence Time measured as 1/koff” value under setting [5] is reported as 2.3 ± 0.6 s. For the setting “sequential deletion of the 1KKR3 sequence”, the “Binding to eIF4E in words (effect of N-terminal deletion from sTIP-05)” value is listed as “little effect on binding”.
“Ac-RIIYSR*QLL*L&-NH2 (sidechain bridge or staple) [sTIP-08, 13mer stapled-peptide, sTIP-06 extended with Lys(ButPhI)]”: the kon under setting [6] was 6.2 ± 0.2 × 10^5 M^–1 s^–1. For the same molecule, under setting [7], the “K D, binding affinity … as a ratio of koff/kon” value stood at 45.2 ± 0.6 nM and the koff is 2.8 ± 0.1 × 10^–2 s^–1. For the same molecule, the “RT, Residence Time measured as 1/koff” value under setting [5] is 35.5 ± 1.3 s.
As for “Ac-RIIYSR*QLL*L-NH2 (sidechain bridge or staple) [sTIP-06]”, under setting [6], the kon is 2.7 ± 0.7 × 10^8 M^–1 s^–1. Besides, under setting [7], the “K D, binding affinity … as a ratio of koff/kon” value is reported as 0.8 ± 0.1 nM and the koff is on record as 2.2 ± 0.8 × 10^–1 s^–1. In addition, the Kd under setting [8] was found to be 0.8 nM. Moreover, under setting [4], the “RT, Residence Time measured as 1/koff” value is 6 s. In addition, the “RT, Residence Time measured as 1/koff” value under setting [5] came to 6.0 ± 2.4 s.
In the case of “Ac-RYSREQLL*FQR*-NH2 (sidechain bridge or staple) [sTIP-15]”, the kon under setting [6] is 4.2 ± 2.3 × 10^6 M^–1 s^–1. In addition, under setting [7], the “K D, binding affinity … as a ratio of koff/kon” value turned out to be 54.8 ± 6.4 nM and the koff was 2.4 ± 1.5 × 10^–1 s^–1. Also, the Kd under setting [8] came to 54 nM. For the same molecule, the “RT, Residence Time measured as 1/koff” value under setting [5] is 6.7 ± 4.1 s. In addition, where the note is “relative to sTIP-12”, the “Improvement in KD over sTIP-12” value was 7 fold and the “Improvement in rate of association (kon) over sTIP-12” value turned out to be 10 fold.
